# Measured values reported in US20120184493A1, “DERMAL FORMULATIONS OF DP2 RECEPTOR ANTAGONISTS” (PANMIRA PHARMACEEUTICALS, LLC, priority 2009, published 2012).
# pIC50: −log10 of the molar value.
# Experiments:
# human DP1 receptor = molecular target: T1, human DP1 receptor (Homo sapiens, UniProt Q13258); assay: DP1 radioligand membrane binding assay using [3H]BWA868C; conditions: human platelet membranes, 2 nM [3H]BWA868C; read-out: hDP1
# T1 construct: tissue Biological Specialty Corporation; host or cells: human platelets, membrane preparation
# T1 sequence (Q13258 1-359): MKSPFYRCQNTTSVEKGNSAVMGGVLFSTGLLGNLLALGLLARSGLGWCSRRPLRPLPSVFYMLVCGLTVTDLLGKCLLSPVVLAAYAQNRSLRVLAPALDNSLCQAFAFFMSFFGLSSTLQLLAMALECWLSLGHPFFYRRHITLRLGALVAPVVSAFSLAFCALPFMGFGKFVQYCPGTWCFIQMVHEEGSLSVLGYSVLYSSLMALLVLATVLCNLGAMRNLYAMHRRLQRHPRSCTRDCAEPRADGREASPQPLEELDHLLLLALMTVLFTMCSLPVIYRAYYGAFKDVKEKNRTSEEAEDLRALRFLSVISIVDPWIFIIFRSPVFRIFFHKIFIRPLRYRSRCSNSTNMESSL
# Description: The ability of a compound to bind to the human DP1 receptor was evaluated via a radioligand membrane binding assay using the DP1 selective synthetic ligand [^3H]BWA868C. Packed human platelets (Biological Specialty Corporation), were resuspended in 6 volumes of Hepes/HBSS buffer (10 mM Hepes, 1 mM DTT in Hanks Balanced Salt Solution (HBSS)), lysed and centrifuged at 75,000×g to pellet the membranes. Membranes were resuspended in Hepes/HBSS buffer to approximately 12 mg protein/ml. Membranes (20 μg protein/well) are incubated in 96-well plates with 2 nM [^3H]BWA868C and test compound in Assay Buffer (50 mM Hepes, 10 mM MnCl2, 1 mM EDTA, plus or minus 0.2% human serum albumin, pH 7.4) for 60 minutes at room temperature. The reactions are terminated by rapid filtration through Whatman GF/C glass fibre filter plates. The filter plates were pre-soaked in 0.33% polethylenimine for 30 minutes at room temperature then washed in Wash Buffer (50 mM Hepes, 0.5 M NaCl pH 7.4) prior to harvesting. After harvesting, the filter plates are washed 3 times with 1 ml cold Wash Buffer then dried. Scintillant is then added to the plates and the radioactivity retained on the filters is determined on a Packard TopCount (Perkin Elmer). Specific binding is determined as total radioactive binding minus non-specific binding in the presence of 10 μM BW A868C. IC50s were determined using GraphPad prism analysis of drug titration curves.
# human DP2 receptor = molecular target: T2, human DP2 receptor (Homo sapiens, UniProt Q9Y5Y4); assay: DP2/CRTH2 radioligand binding assay using [3H]PGD2; conditions: membranes of HEK293 cells expressing recombinant human DP2, 1 nM [3H]PGD2; read-out: hDP2
# T2 construct: expressed in transfected cells
# T2 sequence (Q9Y5Y4 1-395): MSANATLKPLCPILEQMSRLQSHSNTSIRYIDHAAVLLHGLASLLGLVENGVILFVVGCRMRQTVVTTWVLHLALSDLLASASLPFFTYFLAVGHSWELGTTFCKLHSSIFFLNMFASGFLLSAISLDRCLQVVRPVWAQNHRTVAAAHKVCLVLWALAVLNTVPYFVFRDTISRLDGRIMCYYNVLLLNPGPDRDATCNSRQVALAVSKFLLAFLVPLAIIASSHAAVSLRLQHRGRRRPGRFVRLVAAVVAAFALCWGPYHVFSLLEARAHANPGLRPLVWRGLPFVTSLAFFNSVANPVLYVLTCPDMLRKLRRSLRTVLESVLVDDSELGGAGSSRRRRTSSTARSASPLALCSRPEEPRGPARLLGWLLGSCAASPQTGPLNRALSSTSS
# Description: The ability of a compound to bind to the human DP2 receptor is assessed via a radioligand binding assay using [^3H]PGD2. HEK293 cells stably expressing recombinant human DP2 are resuspended in 10 mM Hepes, 7.4 containing 1 mM DTT, lysed and centrifuged at 75,000×g to pellet the membranes. The membranes are resuspended in 10 mM Hepes, 7.4 containing 1 mM DTT and 10% glycerol to approximately 5 mg protein/ml. Membranes (2-10 μg protein/well) are incubated in 96-well plates with 1 nM [^3H]PGD2 and test compound in Assay Buffer (50 mM Hepes, 10 mM MnCl2, 1 mM EDTA, plus or minus 0.2% human serum albumin, pH 7.4) for 60 minutes at room temperature. The reactions are terminated by rapid filtration through Whatman GF/C glass fibre filter plates. The filter plates were pre-soaked in 0.33% polythylenimine for 30 minutes at room temperature then washed in Wash Buffer (50 mM Hepes, 0.5 M NaCl pH 7.4) prior to harvesting. After harvesting, the filter plates are washed 3 times with 1 ml cold Wash Buffer then dried. Scintillant is then added to the plates and the radioactivity retained on the filters is determined on a Packard TopCount (Perkin Elmer). Specific binding is determined as total radioactive binding minus non-specific binding in the presence of 10 μM PGD2. IC50s were determined using GraphPad prism analysis of drug titration curves.
pIC50 (human DP1 receptor),pIC50 (human DP2 receptor),SMILES
< 6.00,–,CCOc1ccc(-c2ccc(-c3cc(CC(=O)O)ccc3OC)c(CN(CC)C(=O)C3CC3)c2)cn1 [[2′-[(N-cyclopropanecarbonyl-N-ethyl-amino)-methyl]-4′-(6-ethoxy-pyridin-3-yl)-6-methoxy-biphenyl-3-yl]-acetic acid]
< 6.00,> 6.52,CCN(Cc1cc(C(F)(F)F)ccc1-c1cncc(CC(=O)O)c1)C(=O)OCc1ccccc1 [(5-{2-[(N-benzyloxycarbonyl-N-ethyl-amino)-methyl]-4-trifluoromethyl-phenyl}-pyridin-3-yl)-acetic acid]
< 6.00,> 6.52,"CN(C1CCc2c(c3ncccc3n2CC(=O)O)C1)S(=O)(=O)c1ccc(F)cc1 (stereo not shown) [{8-[(4-fluoro-benzenesulfonyl)-methyl-amino]-6,7,8,9-tetrahydro-pyrido[3,2-b]indol-5-yl}-acetic acid]"
< 6.00,> 6.52,"COc1ccc(CC(=O)O)cc1Oc1ccc(NC(=O)C(C)(C)C)cc1CSC(C)(C)C [{3-[2-tert-Butylsulfanylmethyl-4-(2,2-dimethyl-propionylamino)-phenoxy]-4-methoxy-phenyl}-acetic acid]"
